Data published in US4530903A, “L-2-hydroxy-4-methylpentanoic acid-dehydrogenase, process for obtaining it and its use” (Degussa Aktiengelleschaft, priority 1982, dated 1985).
One block for each molecule: values may come before it.

How the values were obtained:
[1] = biological target: T1, L-2-hydroxy-4-methylpentanoic acid-dehydrogenase (Weissella confusa, UniProt P14295); assay: Dehydrogenation of 2-hydroxycarboxylic acids to 2-ketocarboxylic acids (Example 1), NADH formation at 340 nm; assay type: biochemical, Lactobacillus confusus; conditions: same enzyme solution
T1 construct: the cells harvesting by centrifugation, solubilizing the product in a suspension buffered to pH 7 and obtaining the enzyme from the extract; made in house; host or cells: Lactobacillus confusus DSM 20196 (natural producer, not recombinant)
T1 sequence (P14295 1-310): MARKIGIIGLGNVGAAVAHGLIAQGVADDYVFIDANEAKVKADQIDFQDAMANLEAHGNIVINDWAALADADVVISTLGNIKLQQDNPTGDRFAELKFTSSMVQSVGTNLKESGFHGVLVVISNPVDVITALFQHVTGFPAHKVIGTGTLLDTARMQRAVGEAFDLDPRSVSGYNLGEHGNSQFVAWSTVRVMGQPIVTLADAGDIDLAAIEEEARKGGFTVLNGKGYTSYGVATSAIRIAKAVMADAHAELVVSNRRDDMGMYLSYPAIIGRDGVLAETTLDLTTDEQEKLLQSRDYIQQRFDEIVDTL
Description: (§1) In each case, there was measured the maximal initial reaction velocity Vmax and the KM value. […] In a corresponding manner, the enzymatic activity against other 2-hydroxycarboxylic acids was determined. The concentration of the corresponding 2-hydroxycarboxylic acids in the test was varied between 0.2 and a maximum of 100 millimoles. By increasing the substrate concentration, the maximum beginning reaction velocity Vmax was ascertained. The Michaelis constant (KM value) corresponds to the substrate concentration in moles/liter, at which the reaction velocity V amounts to half the maximum initial reaction velocity. The kinetic constants Vmax and KM were ascertained through non-linear regression of the Michaelis-[…] and are collected in Table 2. […] The relative activities (U/ml) set forth in Table 3 were measured at substrate-final concentrations of 1 millimole, 10 millimoles, and 100 millimoles. In all cases, there was employed the same enzyme solution.

[2] = biological target: T1, L-2-hydroxy-4-methylpentanoic acid-dehydrogenase; assay: Reduction of 2-ketocarboxylic acids to L-2-hydroxycarboxylic acids (Example 2), NADH decrease at 340 nm; assay type: biochemical, Lactobacillus confusus; conditions: same enzyme solution
Description: (§2) In each case, there was again measured the maximal beginning reaction velocity Vmax and the KM value. […] In a corresponding manner there was determined the enzyme activity against other 2-ketocarboxylic acids. The keto acid concentration in each case was varied in the range of 0.01 to a maximum of 10 millimoles. The maximal initial reaction velocity was ascertained through the increase of the substrate concentration. The Michaelis constant (KM value) corresponds to the substrate concentration in moles/liter at which the reaction velocity V is half the maximum initial reaction velocity. The kinetic constants Vmax and KM were ascertained through nonlinear regression of the Michaelis-[…] equation and are summarized in following Table 4. The relative activities (U/ml) stated in Table 5 were measured at substrate final concentrations of 0.1 millimoles, 1 millimole, and 10 millimoles. In all cases, there was employed the same enzyme solution. At 10 millimoles in all substrates there was already noticeable a substrate excess inhibition.

[3] = substrate: NC(=O)C1=CN([C@@H]2O[C@H](COP(=O)(O)OP(=O)(O)OC[C@H]3O[C@@H](n4cnc5c(N)ncnc54)[C@H](O)[C@@H]3O)[C@@H](O)[C@H]2O)C=CC1; assay: purified protein, by the assay type; conditions: other: pH 7.0, 0.79 millimole 2-keto-4-methylpentanoic acid, NADH 0.01 to 0.33 millimoles
[4] = substrate: CC(C)CC(O)C(=O)O; assay: purified protein, by the assay type; assay type: biochemical, Lactobacillus confusus; conditions: other: dehydrogenation, pH 8.0, 3 mmoles NAD+, with the enantiomer mixture based on the total concentration
Description: as §1

[5] = substrate: CC(C)C[C@H](O)C(=O)O; assay: purified protein, by the assay type; assay type: biochemical, Lactobacillus confusus; conditions: other: dehydrogenation, pH 8.0, 3 mmoles NAD+, with the enantiomer mixture based on the total concentration
Description: as §1

[6] = substrate: CCCC(O)C(=O)O; assay: purified protein, by the assay type; assay type: biochemical, Lactobacillus confusus; conditions: other: dehydrogenation, pH 8.0, 3 mmoles NAD+, with the enantiomer mixture based on the total concentration
Description: as §1

[7] = substrate: CCCCC(O)C(=O)O; assay: purified protein, by the assay type; assay type: biochemical, Lactobacillus confusus; conditions: other: dehydrogenation, pH 8.0, 3 mmoles NAD+, with the enantiomer mixture based on the total concentration
Description: as §1

[8] = substrate: CSCCC(O)C(=O)O; assay: purified protein, by the assay type; assay type: biochemical, Lactobacillus confusus; conditions: other: dehydrogenation, pH 8.0, 3 mmoles NAD+, with the enantiomer mixture based on the total concentration
Description: as §1

[9] = substrate: NC(=O)c1ccc[n+]([C@@H]2O[C@H](COP(=O)([O-])OP(=O)(O)OC[C@H]3O[C@@H](n4cnc5c(N)ncnc54)[C@H](O)[C@@H]3O)[C@@H](O)[C@H]2O)c1; assay: Dependency of the dehydrogenation reaction velocity on the NAD+ concentration; assay type: biochemical, Lactobacillus confusus; conditions: other: pH 8.0, 6.3 millimoles L-2-hydroxy-4-methylpentanoic acid, NAD+ 0.05 to 7.0 millimoles
Text: The dependency of the reaction velocity on the NAD^+ concentration was ascertained in a test mixture which contained 0.1 molar phosphate buffer for pH 8.0, 6.3 millimoles of L-2-hydroxy-4-methylpentanoic acid and limiting amounts of enzyme. The NAD^+ concentration was varied in the range of 0.05 to 7.0 millimoles.
The KM value for NAD^+ was ascertained by non-linear regression of the Michaelis-Menten equation and was 3.3×10^-4 moles.

[10] = substrate: CC(C)CC(=O)C(=O)O; assay: purified protein, by the assay type; assay type: biochemical, Lactobacillus confusus; conditions: other: reduction, pH 7.0, 0.235 millimoles NADH
Description: as §2

[11] = substrate: CCCC(=O)C(=O)O; assay: purified protein, by the assay type; assay type: biochemical, Lactobacillus confusus; conditions: other: reduction, pH 7.0, 0.235 millimoles NADH
Description: as §2

[12] = substrate: CCCCC(=O)C(=O)O; assay: purified protein, by the assay type; assay type: biochemical, Lactobacillus confusus; conditions: other: reduction, pH 7.0, 0.235 millimoles NADH
Description: as §2

[13] = substrate: CSCCC(=O)C(=O)O; assay: purified protein, by the assay type; assay type: biochemical, Lactobacillus confusus; conditions: other: reduction, pH 7.0, 0.235 millimoles NADH
Description: as §2

[14] = test concentration 1 mM substrate
[15] = test concentration 10 mM substrate
[16] = test concentration 100 mM substrate
[17] = test concentration 0.1 mM substrate

relative activity [1, 14]: 0.46 U/ml
relative activity [1, 15]: 2.7 U/ml
relative activity [1, 16]: 5.1 U/ml
Molecule: CSCCC(O)C(=O)O (racemic) [DL-2-Hydroxy-4-(methylmercapto)-butyric acid]

relative activity [1, 14]: 16.6 U/ml
relative activity [1, 15]: 39.8 U/ml
relative activity [1, 16]: 2.9 U/ml
Molecule: CC(C)CC(O)C(=O)O (racemic) [DL-2-Hydroxy-4-methylpentanoic acid]

relative activity [1, 14]: 8.4 U/ml
relative activity [1, 15]: 39.5 U/ml
relative activity [1, 16]: 3.9 U/ml
Molecule: CCCCC(O)C(=O)O (racemic) [DL-2-Hydroxyhexanoic acid]

relative activity [1, 14]: 6.2 U/ml
relative activity [1, 15]: 31.2 U/ml
relative activity [1, 16]: 5.3 U/ml
Molecule: CCCC(O)C(=O)O (racemic) [DL-2-Hydroxypentanoic acid]

relative activity [2, 17]: 33 U/ml
relative activity [2, 14]: 93 U/ml
relative activity [2, 15]: 53 U/ml
Molecule: CSCCC(=O)C(=O)O [2-Keto-4-(methylmercapto)-butyric acid]

relative activity [2, 17]: 133 U/ml
relative activity [2, 14]: 259 U/ml
relative activity [2, 15]: 144 U/ml
Molecule: CC(C)CC(=O)C(=O)O [2-Keto-4-methylpentanoic acid]

relative activity [2, 17]: 123 U/ml
relative activity [2, 14]: 301 U/ml
relative activity [2, 15]: 103 U/ml
Molecule: CCCCC(=O)C(=O)O [2-Ketohexanoic acid]

relative activity [2, 17]: 149 U/ml
relative activity [2, 14]: 344 U/ml
relative activity [2, 15]: 161 U/ml
Molecule: CCCC(=O)C(=O)O [2-Ketopentanoic acid]

relative activity [1, 14]: 28.4 U/ml
relative activity [1, 15]: 49.7 U/ml
relative activity [1, 16]: 5.0 U/ml
Molecule: CC(C)C[C@H](O)C(=O)O [L-2-Hydroxy-4-methylpentanoic acid]

B1: L-2-hydroxy-4-methylpentanoic acid-dehydrogenase (Weissella confusa) (protein)
chain: T1 sequence (P14295 1-310)
notes: the cells harvesting by centrifugation, solubilizing the product in a suspension buffered to pH 7 and obtaining the enzyme from the extract; made in house; host or cells: Lactobacillus confusus DSM 20196 (natural producer, not recombinant)
Km [3]: 3.3e-05 mol
Km [4]: 1400 µM
Vmax [4]: 9.6 µmol/min/mg
Km [5]: 620 µM
Vmax [5]: 9.8 µmol/min/mg
Km [6]: 3550 µM
Km [7]: 4500 µM
Km [8]: 11000 µM
Vmax [8]: 1.2 µmol/min/mg
Km [9]: 330 µM
Km [10]: 70 µM
Vmax [10]: 64 µmol/min/mg
Km [11]: 250 µM
Km [12]: 120 µM
Km [13]: 210 µM
Vmax [13]: 28 µmol/min/mg
